Assay results reported in ChEMBL document CHEMBL1201862, “PubChem BioAssay data set” (2004).
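Compound exposure: 48 hours, 5 concentrations, 96-well plates. The concentration for 50% growth inhibition is given as GI50.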 Active and inactive are the calls of the source. Rule as the data show it: active = GI50 up to about 1.1 µM and inactive = higher.

Columns and labels:
Test in all cases: NCI anticancer screen, dose series, 48 h
SK-MEL-5 = system: SK-MEL-5
U-251 = system: U-251
IGROV-1 = system: IGROV-1
Malme-3M = system: Malme-3M
DLD-1 = system: DLD-1
SNB-78 = system: SNB-78
SK-OV-3 = system: SK-OV-3
SW-620 = system: SW-620
SF-295 = system: SF-295
CAKI-1 = system: CAKI-1
SR = system: SR
K562 = system: K562
HCT-116 = system: HCT-116
NCI-H460 = system: NCI-H460
HOP-62 = system: HOP-62
RXF 393 = system: RXF 393
LOX IMVI = system: LOX IMVI
M14 = system: M14
NCI-H522 = system: NCI-H522
M19-MEL = system: M19-MEL
EKVX = system: EKVX
RPMI-8226 = system: RPMI-8226
786-0 = system: 786-0
HCC 2998 = system: HCC 2998
OVCAR-3 = system: OVCAR-3
HCT-15 = system: HCT-15
KM-20L2 = system: KM-20L2
A498 = system: A498
SK-MEL-2 = system: SK-MEL-2
OVCAR-4 = system: OVCAR-4
SF-539 = system: SF-539
SNB-19 = system: SNB-19
KM12 = system: KM12
OVCAR-8 = system: OVCAR-8
SF-268 = system: SF-268
A549 = system: A549
CCRF-CEM = system: CCRF-CEM
ACHN = system: ACHN
MOLT-4 = system: MOLT-4
UO-31 = system: UO-31
XF498 = system: XF498
SK-MEL-28 = system: SK-MEL-28
HOP-18 = system: HOP-18
HOP-92 = system: HOP-92
OVCAR-5 = system: OVCAR-5
TK-10 = system: TK-10
HT-29 = system: HT-29
UACC-62 = system: UACC-62
HL-60 = system: HL-60
LXFL 529 = system: LXFL 529
SN12C = system: SN12C
SNB-75 = system: SNB-75
NCI-H23 = system: NCI-H23
COLO 205 = system: COLO 205
NCI-H226 = system: NCI-H226
DMS-273 = system: DMS-273
UACC-257 = system: UACC-257
DMS-114 = system: DMS-114
MCF7 = system: MCF7
PC-3 = system: PC-3
DU-145 = system: DU-145
MDA-N = system: MDA-N
NCI/ADR-RES = system: NCI/ADR-RES
BT-549 = system: BT-549
Hs-578T = system: Hs-578T
MDA-MB-231 = system: MDA-MB-231
MDA-MB-435 = system: MDA-MB-435
T47D = system: T47D

With `CCOC(=O)C[C@@]12CCCN[C@]1(C)CCc1ccccc12` the GI50 (SK-MEL-5) was > 100 µM (inactive), the GI50 (U-251) was > 100 µM (inactive) and the GI50 (IGROV-1) was > 100 µM (inactive). For the same compound, the GI50 (Malme-3M) was > 100 µM (inactive), the GI50 (DLD-1) was > 100 µM (inactive) and the GI50 (SNB-78) was > 100 µM (inactive). For the same compound, the GI50 (SK-OV-3) was > 100 µM (inactive), the GI50 (SW-620) was > 100 µM (inactive) and the GI50 (SF-295) was > 100 µM (inactive). The GI50 (CAKI-1) was > 100 µM (inactive), the GI50 (SR) was > 100 µM (inactive) and the GI50 (K562) was > 100 µM (inactive). The GI50 (HCT-116) was > 100 µM (inactive), the GI50 (NCI-H460) was > 100 µM (inactive) and the GI50 (HOP-62) was > 100 µM (inactive). The GI50 (RXF 393) was > 100 µM (inactive), the GI50 (LOX IMVI) was > 100 µM (inactive) and the GI50 (M14) was > 100 µM (inactive). For the same compound, the GI50 (NCI-H522) was > 100 µM (inactive), the GI50 (M19-MEL) was > 100 µM (inactive) and the GI50 (EKVX) was > 100 µM (inactive). The GI50 (RPMI-8226) was > 100 µM (inactive), the GI50 (786-0) was > 100 µM (inactive) and the GI50 (HCC 2998) was > 100 µM (inactive). The GI50 (OVCAR-3) was > 100 µM (inactive), the GI50 (HCT-15) was greater than 100 µM and the GI50 (KM-20L2) was > 100 µM (inactive). For the same compound, the GI50 (A498) was > 100 µM (inactive), the GI50 (SK-MEL-2) was > 100 µM (inactive) and the GI50 (OVCAR-4) was > 100 µM (inactive). The GI50 (SF-539) was > 100 µM (inactive), the GI50 (SNB-19) was > 100 µM (inactive) and the GI50 (KM12) was > 100 µM (inactive). For the same compound, the GI50 (OVCAR-8) was > 100 µM (inactive), the GI50 (SF-268) was > 100 µM (inactive) and the GI50 (A549) was > 100 µM (inactive). For the same compound, the GI50 (CCRF-CEM) was > 100 µM (inactive), the GI50 (ACHN) was > 100 µM (inactive) and the GI50 (MOLT-4) was > 100 µM (inactive). For the same compound, the GI50 (UO-31) was > 100 µM (inactive), the GI50 (XF498) was > 100 µM (inactive) and the GI50 (SK-MEL-28) was > 100 µM (inactive). The GI50 (HOP-18) was > 100 µM (inactive), the GI50 (HOP-92) was 97.1 µM (inactive) and the GI50 (OVCAR-5) was > 100 µM (inactive). The GI50 (TK-10) was > 100 µM (inactive), the GI50 (HT-29) was > 100 µM (inactive) and the GI50 (UACC-62) was > 100 µM (inactive). The GI50 (HL-60) was > 100 µM (inactive), the GI50 (LXFL 529) was > 100 µM (inactive) and the GI50 (SN12C) was > 100 µM (inactive). The GI50 (SNB-75) was > 100 µM (inactive) and the GI50 (NCI-H23) was > 100 µM (inactive).
For `COc1ccc(N2C(=O)c3c(c4[nH]c5ccc(OC)cc5c4c4ccc(C(C)(C)C)cc34)C2=O)cc1`, the GI50 (SK-MEL-5) was > 100 µM (inactive), the GI50 (COLO 205) was > 100 µM (inactive) and the GI50 (U-251) was > 100 µM (inactive). The GI50 (IGROV-1) was > 100 µM (inactive), the GI50 (Malme-3M) was > 100 µM (inactive) and the GI50 (DLD-1) was > 100 µM (inactive). The GI50 (SNB-78) was > 100 µM (inactive), the GI50 (SK-OV-3) was > 100 µM (inactive) and the GI50 (SF-295) was > 100 µM (inactive). The GI50 (K562) was > 100 µM (inactive), the GI50 (HCT-116) was > 100 µM (inactive) and the GI50 (NCI-H460) was > 100 µM (inactive). The GI50 (HOP-62) was > 100 µM (inactive), the GI50 (M14) was > 100 µM (inactive) and the GI50 (NCI-H522) was > 100 µM (inactive). The GI50 (M19-MEL) was > 100 µM (inactive), the GI50 (EKVX) was > 100 µM (inactive) and the GI50 (RPMI-8226) was > 100 µM (inactive). For the same compound, the GI50 (786-0) was > 100 µM (inactive), the GI50 (HCC 2998) was > 100 µM (inactive) and the GI50 (OVCAR-3) was > 100 µM (inactive). The GI50 (HCT-15) was greater than 100 µM, the GI50 (SK-MEL-2) was > 100 µM (inactive) and the GI50 (OVCAR-4) was > 100 µM (inactive). The GI50 (SF-539) was > 100 µM (inactive), the GI50 (SNB-19) was > 100 µM (inactive) and the GI50 (NCI-H226) was > 100 µM (inactive). The GI50 (DMS-273) was > 100 µM (inactive), the GI50 (KM12) was > 100 µM (inactive) and the GI50 (OVCAR-8) was 92.7 µM (inactive). For the same compound, the GI50 (SF-268) was > 100 µM (inactive), the GI50 (A549) was > 100 µM (inactive) and the GI50 (CCRF-CEM) was > 100 µM (inactive). For the same compound, the GI50 (ACHN) was > 100 µM (inactive), the GI50 (MOLT-4) was > 100 µM (inactive) and the GI50 (UO-31) was > 100 µM (inactive). For the same compound, the GI50 (XF498) was > 100 µM (inactive), the GI50 (SK-MEL-28) was > 100 µM (inactive) and the GI50 (HOP-18) was > 100 µM (inactive). The GI50 (HOP-92) was > 100 µM (inactive), the GI50 (UACC-257) was > 100 µM (inactive) and the GI50 (DMS-114) was > 100 µM (inactive). For the same compound, the GI50 (OVCAR-5) was > 100 µM (inactive), the GI50 (TK-10) was > 100 µM (inactive) and the GI50 (HT-29) was > 100 µM (inactive). For the same compound, the GI50 (HL-60) was 53.2 µM (inactive), the GI50 (LXFL 529) was > 100 µM (inactive) and the GI50 (SN12C) was > 100 µM (inactive). For the same compound, the GI50 (SNB-75) was > 100 µM (inactive) and the GI50 (NCI-H23) was > 100 µM (inactive).
With `CC(=O)O[C@H]1C(=O)O[C@@H]2C[C@H]3C(C)=CC(=O)[C@@H](O)[C@]3(C)[C@H]3[C@@]4(O)OC[C@]32[C@@H]1[C@@H](C)[C@H]4O` the GI50 (SK-MEL-5) was 0.0247 µM (active), the GI50 (COLO 205) was 0.188 µM (active) and the GI50 (MCF7) was 0.0294 µM (active). The GI50 (U-251) was 0.0285 µM (active), the GI50 (IGROV-1) was 0.0279 µM (active) and the GI50 (Malme-3M) was 0.0232 µM (active). The GI50 (DLD-1) was 0.03 µM (active), the GI50 (PC-3) was 0.02 µM (active) and the GI50 (SNB-78) was 0.0515 µM (active). For the same compound, the GI50 (SK-OV-3) was 0.524 µM (active), the GI50 (SW-620) was 0.0527 µM (active) and the GI50 (SF-295) was 0.0535 µM (active). For the same compound, the GI50 (CAKI-1) was 0.265 µM (active), the GI50 (DU-145) was 0.0321 µM (active) and the GI50 (K562) was 0.0266 µM (active). For the same compound, the GI50 (HCT-116) was 0.0234 µM (active), the GI50 (HOP-62) was 0.0498 µM (active) and the GI50 (MDA-N) was 0.0211 µM (active). For the same compound, the GI50 (RXF 393) was 0.0301 µM (active), the GI50 (LOX IMVI) was 0.0321 µM (active) and the GI50 (M14) was 0.0219 µM (active). For the same compound, the GI50 (NCI-H522) was 0.0243 µM (active), the GI50 (M19-MEL) was 0.0272 µM (active) and the GI50 (EKVX) was 0.0453 µM (active). The GI50 (RPMI-8226) was 0.0286 µM (active), the GI50 (786-0) was 0.0238 µM (active) and the GI50 (HCC 2998) was 0.0505 µM (active). For the same compound, the GI50 (OVCAR-3) was 0.0266 µM (active), the GI50 (HCT-15) was 0.0759 µM and the GI50 (KM-20L2) was 0.0977 µM (active). For the same compound, the GI50 (A498) was 0.103 µM (active), the GI50 (SK-MEL-2) was 0.0611 µM (active) and the GI50 (NCI/ADR-RES) was 2.21 µM (inactive). The GI50 (OVCAR-4) was 0.0577 µM (active), the GI50 (SF-539) was 0.0246 µM (active) and the GI50 (BT-549) was 0.0312 µM (active). The GI50 (Hs-578T) was 0.0175 µM (active), the GI50 (MDA-MB-231) was 0.0475 µM (active) and the GI50 (DMS-273) was 0.0264 µM (active). The GI50 (MDA-MB-435) was 0.0214 µM (active), the GI50 (KM12) was 0.0318 µM (active) and the GI50 (OVCAR-8) was 0.0444 µM (active). For the same compound, the GI50 (SF-268) was 0.0432 µM (active), the GI50 (CCRF-CEM) was 0.0328 µM (active) and the GI50 (ACHN) was 0.0317 µM (active). For the same compound, the GI50 (MOLT-4) was 0.022 µM (active), the GI50 (UO-31) was 0.53 µM (active) and the GI50 (XF498) was 0.031 µM (active). The GI50 (SK-MEL-28) was 0.0281 µM (active), the GI50 (HOP-18) was 0.177 µM (active) and the GI50 (HOP-92) was 0.0329 µM (active). The GI50 (UACC-257) was 0.0395 µM (active), the GI50 (DMS-114) was 0.0253 µM (active) and the GI50 (OVCAR-5) was 0.348 µM (active). The GI50 (TK-10) was < 0.0234 µM (active), the GI50 (HT-29) was 0.0518 µM (active) and the GI50 (UACC-62) was 0.0434 µM (active). The GI50 (HL-60) was 0.0229 µM (active), the GI50 (T47D) was 0.0228 µM (active) and the GI50 (SN12C) was 0.0767 µM (active). The GI50 (SNB-75) was 0.0366 µM (active) and the GI50 (NCI-H23) was 0.0268 µM (active).
